Data from patent US4004008A, “O-Tertiary amino-alkyl-N-benzoyl tyrosil amides” (priority 1974, dated 1977).
In brackets after ≈: the same amount, converted by molar mass.

Assays:
urinary bladder of a rat = test: Urinary bladder movement of anaesthetised rat in vivo; conditions: for activity in the urinary tract tests: statement on the bladder and ureter tests of Table 3; for ED50: read-out: Urinary sac of rat in vivo ED50
Description: The in vivo evaluation was made upon the urinary bladder of a rat anaesthetised and placed in an environment heated to the animals body temperature whilst the bladder which is exposed is linked to a system which registers its movement. The pharmaceutilcals were given to the animals by intravenous means.

rat's ureter = test: Ureter of rat in vitro; format: cell-based; conditions: for IC50: Rattus norvegicus, read-out: Ureter of rat in vitro ED50
Description: The in vitro evaluation was made on a rat's ureter suspended in a bath of physiological liquid according to a method similar to the Magnus method already described.

[1] = Acute toxicity (DL50) i.v. in rat; format: in vivo; conditions: in vivo, iv, dose causing death in 50% of the animals
Experimental: (§1) In this table (n. 1) there are recorded the compounds described in the examples with their relative serial numbers, the acute toxicity, the antispastic activity observed in two experimental tests, one "in vivo" and one "in vitro". There are moreover recorded two therapeutic indices which take account of the toxicity of these compounds in relation to their in vivo and in vitro activity. More precisely:
(§2) A. DL50 which, as is known, is the quantity of the substance expressed in mg/kg of animal weight, capable of causing death in 50% of the animals treated.

[2] = system: cavy ileum (histamine spasm); test: Antispastic activity in vitro on cavy ileum, spasmiser histamine; format: cell-based; conditions: Table 2; ED50 ratio
Experimental: (§3) C. The method in vitro is that of Magnus, with the ileum of the cavy, and is in common use for all evaluations. It consists of extracting the ileum from the cavy and placing it in a receptacle which contains nutritive liquid, suitably oxygenated, and registering the movements of the organ which remains alive for several hours if maintained at a temperature of 37°. According to the traditional method followed by us, BaCl2 is put into the bath as a spasmisant: the reaction is a violent contraction of the organ. This contraction can be prevented by adding beforehand pharmaceuticals which inhibit spasms, and in this case our compounds.
(§4) The activities which have been described so far both in vitro and in vivo can be confirmed using different animals or different organs. These activities are further improved if, instead of BaCl2 other spasmisers are used, such as serotoninehistamine and oxytocine (see Table 2).
(§5) The values contained in the table are expressed as comparison between the
(§6) substance being studied, and they therefore express the activity of the
(§7) compounds compared with known, very active substances.

[3] = system: cavy ileum (serotonine spasm); test: Antispastic activity in vitro on cavy ileum, spasmiser serotonine; format: cell-based; conditions: Table 2; ED50 ratio
Experimental: as §3, §4, §5, §6, §7

[4] = system: rat uterus (oxytocine spasm); test: Antispastic activity in vitro on rat uterus, spasmiser oxytocine; format: cell-based; conditions: Table 2; ED50 ratio
Description: as §4, §5, §6, §7

[5] = system: ileum of a cavy (BaCl2 spasm); test: Antispastic activity in vitro, Magnus method, cavy ileum stimulated with BaCl2; format: cell-based; conditions: for Antispastic activity in vitro, cavy ileum, BaCl2 (relative to papaverine = 1): Table 2, ED50 of test substance papaverine / ED50 of compound; for Antisp. activity in vitro on the ileum of a cavy by Stim. BaCl2: ED50 pap./ED50 CR: ratio to papaverine = 1, Table 1, 37°
Experimental: as §3
The values recorded are expressed as relation between papaverine and the ED50 of our compounds. (As is known, the ED50 is the dose which results in a 50% reduction in spastic contraction).
E. I.T.2 is the therapeutic index under the profile of the antispastic activity in vitro and is given by the product between the in vitro antispastic activity index (column 4) and the corresponding DL50 (column 2).

[6] = system: intestinal transit of the charcoal; test: Vegetable carbon (charcoal) intestinal transit test in vivo; parameters: species or system rat; conditions: for ED50: Rattus norvegicus, iv, 2 h, read-out: Antisp. activity in transit test: ED50; for ED50 / Antisp. activity in transit test: ED50: i.v., rat, charcoal test, 2 hours
Experimental: B. The vegetable carbon method in vivo (charcoal method) which consists of administering by oral means to rats, which have fasted for 24 hours, 0.3ml/per rate of a mixture consisting of: 10g of charcoal and 5 g of gum arabic suspended in a volume of 100 cc of H2 O as well as at the same time the substance being studied, accordingly as desired, generally i.v., s.c., oral. After two hours the animals are killed and those are taken to be negative in which the charcoal has reached the first portion of the colon and the others positive, in the sense that the substance administered has slowed down the intestinal transit of the charcoal.
In effect the animals treated with a physiological solution (checks) are all negative after two hours.
D. I.T.1 is the therapeutic index under the profile of the antispastic activity in vivo, and it is obtained by recording the DL50 (column 2) with the ED50 of the charcoal test (column 3).

stomach and pylorus = test: Perfusion outflow of stomach and pylorus (gastro-pyloric spasm by morphine); format: in vivo; conditions: i.v.; CR 605 5, CR 725 10, CR 603 12.5 mg/kg; morphine 250 μg
Description: (§8) The results shown in this table were obtained by perfusing with a physiological solution, the stomach and the bile ducts respectively and collecting the liquid emerging after the pylorus and the sphineter of Oddi.

[7] = system: bile ducts (sphincter of Oddi); test: Perfusion outflow of bile ducts (bile duct spasm by morphine); format: in vivo; conditions: i.v.; CR 605 5, CR 725 10, CR 603 12.5 mg/kg; morphine 250 μg
Description: as §8

rat = test: Acute toxicity (DL50) i.v. in rat; format: in vivo; conditions: dose causing death in 50% of the animals
Experimental: as §1, §2

[8] = system: caudal artery of a rat (ergotamine tartrate contraction); test: Antispastic activity on caudal artery of rat stimulated with ergotamine tartrate; format: cell-based; conditions: ergotamine tartrate 350 μg/ml of perfusion liquid; 50% reduction of contraction
Experimental: An in vitro evaluation of this activity was made upon the caudal artery of a rat, suspended, so that one can register the variation of internal pressure, and contracted with ergotamine tartrate put in to the arterial lumen of the said vessel with a dose of 350 μg/ml of perfusion liquid.
The spasm was antagonised with the compounds being tested. The evaluation was made with ED50, i.e., a concentration of the product in the perfusion liquid expressed as μg/ml able to reduce the contraction thus induced by 50%.
Antispastic activity of some of the claimed compounds upon the caudal artery of a rat stimulated with ergotamine tartrate: values are expressed in ED50 (see specification).

[9] = system: caudal artery of a rat (electric stimulation); test: Antispastic activity on caudal artery of rat, electrically stimulated; format: cell-based; conditions: 50% reduction of response to electric stimulation
Experimental: In another experiment the caudal artery of a rat was electrically stimulated and the pharmaceuticals were added to the bath. The activity was assessed at ED50, i.e., the quantity of pharmaceutical expressed in μg/ml of the perfusion liquid able to reduce by half the response of the electric stimulation compared with that of the checks.
Antispastic activity of some of the compounds claimed on the caudal artery of a rat, electrically stimulated: the values are expressed in ED50 (see Specification).

CN1[C@@H]2CC[C@H]1C[C@@H](OC(=O)C(CO)c1ccccc1)C2 (stereo partly drawn) [Atropine, atropine, reference compound]
activity in the urinary tract tests (urinary bladder of a rat): inactive
Ureter of rat in vitro ED50 (rat's ureter): inactive

CCCN(CCC)C(=O)C(Cc1ccc(OCCN(CC)CC)cc1)NC(=O)c1ccc(Cl)cc1 (racemic) [CR 716, O-(2-diethylamino-ethyl)-N-(p-chloro-benzoyl)-DL-tyrosil-di-n-propylamide]
LD50 [1]: 56.4 mg/kg
Antispastic activity in vitro, cavy ileum, histamine (relative to prometazine = 1) [2]: 0.08
Antispastic activity in vitro, cavy ileum, serotonine (relative to methysergide = 1) [3]: 0.74
Antispastic activity in vitro, rat uterus, oxytocine (relative to papaverine = 1) [4]: 0.06
Antispastic activity in vitro, cavy ileum, BaCl2 (relative to papaverine = 1) [5]: 1.58
Antisp. activity in vitro on the ileum of a cavy by Stim. BaCl2: ED50 pap./ED50 CR [5]: 1.58
ED50 [6]: 26.5 mg/kg

COc1ccc(Cc2nccc3cc(OC)c(OC)cc23)cc1OC [Papaverine, papaverine, reference compound]
ED50 (urinary bladder of a rat; intravenous, anaesthetised rat): 7.59 mg/kg
LD50 [1]: 27.2 mg/kg
IC50 (rat's ureter): 45.2 µg/mL (≈ 133 µM)
Antisp. activity in vitro on the ileum of a cavy by Stim. BaCl2: ED50 pap./ED50 CR [5]: 1
ED50 [6]: 22.5 mg/kg
I.T.1: DL50/ED50 in vivo ([6]; therapeutic index, DL50 / charcoal ED50, rat i.v.): 1.2

CN1CC[C@]23c4c5ccc(O)c4O[C@H]2[C@@H](O)C=C[C@H]3[C@H]1C5 [Morphine, morphine, reference compound]
Stomach and pylorus, %age variation between 1st and 2nd hour (stomach and pylorus): -54.5%
Bile ducts, %age variation between the 1st and 2nd hour [7]: -48.3%

CCCN(CCC)C(=O)C(Cc1ccc(OCCN(CC)CC)cc1)NC(=O)c1ccccc1 (racemic) [CR 605, O-(2-diethylamino-ethyl)-N-benzoyl-DL-tyrosil-di-n-propylamide]
ED50 (urinary bladder of a rat; intravenous, anaesthetised rat): 6.25 mg/kg
Stomach and pylorus, outflow after the 1st hour (stomach and pylorus): 131.2 mL
Stomach and pylorus, outflow after the 2nd hour (stomach and pylorus): 132.9 mL
LD50 [1]: 33.9 mg/kg
Antispastic activity in vitro, cavy ileum, histamine (relative to prometazine = 1) [2]: 0.17
IC50 (rat's ureter): 74.2 µg/mL (≈ 159 µM)
Antispastic activity in vitro, cavy ileum, serotonine (relative to methysergide = 1) [3]: 0.69
Antispastic activity in vitro, rat uterus, oxytocine (relative to papaverine = 1) [4]: 0.09
Antispastic activity in vitro, cavy ileum, BaCl2 (relative to papaverine = 1) [5]: 1.25
Antisp. activity in vitro on the ileum of a cavy by Stim. BaCl2: ED50 pap./ED50 CR [5]: 1.25
Bile ducts, %age variation between the 1st and 2nd hour [7]: +21.5%
Bile ducts, outflow after the 1st hour [7]: 46.6 mL
Bile ducts, outflow after the 2nd hour [7]: 56.6 mL
ED50 [6]: 10.6 mg/kg

CCCN(CCC)C(=O)C(Cc1ccc(OCCN(CC)CC)cc1)NC(=O)c1ccc(C)cc1 (racemic) [CR 807, O-(2-diethylamino-ethyl)-N-toluoyl-DL-tyrosil-di-n-propylamide]
DL50 in a rat (rat): 31.5 mg/kg
Antisp. activity in vitro on the ileum of a cavy by Stim. BaCl2: ED50 pap./ED50 CR [5]: 0.34
Antisp. activity in transit test: ED50 [6]: 21 mg/kg

CCCN(CCC)C(=O)C(Cc1ccc(OCCN(C)C)cc1)NC(=O)c1ccc(C)cc1 (racemic) [CR 615, O-(2-dimethylamino-ethyl)-N-toluoyl-DL-tyrosil-di-n-propylamide]
DL50 in a rat (rat): 48.1 mg/kg
Antisp. activity in vitro on the ileum of a cavy by Stim. BaCl2: ED50 pap./ED50 CR [5]: 0.69
Antisp. activity in transit test: ED50 [6]: inactive

CCCC[N+]1(C)C2CC(OC(=O)C(CO)c3ccccc3)CC1C1OC12 (stereo not drawn) [Joscina-N-butyl-bromide]
Urinary sac of rat in vivo ED50 (urinary bladder of a rat; intravenous, anaesthetised rat): inactive
activity in the urinary tract tests (urinary bladder of a rat): inactive

CCCN(CCC)C(=O)C(Cc1ccc(OCCN(CC)CC)cc1)NC(=O)OCc1ccccc1 [CR 627, O-(2-diethylamino-ethyl)-N-carbobenzoxy-D-tyrosil-di-n-propylamide]
DL50 in a rat (rat): 34.0 mg/kg
Antisp. activity in vitro on the ileum of a cavy by Stim. BaCl2: ED50 pap./ED50 CR [5]: 1.44
Antisp. activity in transit test: ED50 ([6]; 120 min): 20.8 mg/kg

CCCCN(CCCC)C(=O)C(Cc1ccc(OCCCN2CCN(C)CC2)cc1)NC(=O)c1ccccc1Cl (racemic) [CR 731, O-[3-(N"-methyl-piperazine)-N'-propyl]-N-(o-chloro-benzoyl)-DL-tyrosil-di-n-butylamide]
DL50 in a rat (rat): 61 mg/kg
Antisp. activity in vitro on the ileum of a cavy by Stim. BaCl2: ED50 pap./ED50 CR [5]: 1.75
Antisp. activity in transit test: ED50 [6]: 39.4 mg/kg

CCCCNC(=O)C(Cc1ccc(OCCN2CCCC2)cc1)NC(=O)c1ccc(C)cc1 (racemic) [CR 651, O-(2-pyrrolidil-N'-ethyl)-N-toluoyl-DL-tyrosil-n-butylamide]
DL50 in a rat (rat): 34.1 mg/kg
ED50, caudal artery, ergotamine tartrate [8]: 37 µg/mL (≈ 81.9 µM)
ED50, caudal artery, electrically stimulated [9]: 19 µg/mL (≈ 42.1 µM)
Antisp. activity in vitro on the ileum of a cavy by Stim. BaCl2: ED50 pap./ED50 CR [5]: 1.60
Antisp. activity in transit test: ED50 [6]: 16.3 mg/kg

CCCN(CCC)C(=O)C(Cc1ccc(OCCCN2CCN(C)CC2)cc1)NC(=O)c1ccc(Cl)cc1 (racemic) [CR 725, O-[3-(N"-methyl-piperazine)-N'-propyl]-N-(p-chloro-benzoyl)-DL-tyrosil-di-n-propylamide]
ED50 (urinary bladder of a rat; intravenous, anaesthetised rat): 8.32 mg/kg
Stomach and pylorus, outflow after the 1st hour (stomach and pylorus): 167.2 mL
Stomach and pylorus, outflow after the 2nd hour (stomach and pylorus): 165.5 mL
LD50 [1]: 62.6 mg/kg
Antispastic activity in vitro, cavy ileum, histamine (relative to prometazine = 1) [2]: 0.24
IC50 (rat's ureter): 27.3 µg/mL (≈ 50.3 µM)
Antispastic activity in vitro, cavy ileum, serotonine (relative to methysergide = 1) [3]: 1.2
Antispastic activity in vitro, rat uterus, oxytocine (relative to papaverine = 1) [4]: 0.18
Antispastic activity in vitro, cavy ileum, BaCl2 (relative to papaverine = 1) [5]: 3.20
Antisp. activity in vitro on the ileum of a cavy by Stim. BaCl2: ED50 pap./ED50 CR [5]: 3.20
Bile ducts, outflow after the 1st hour [7]: 49.7 mL
Bile ducts, outflow after the 2nd hour [7]: 53.2 mL
ED50 [6]: 12.2 mg/kg
